Kp uu and efflux ratio data for 1 compound are collected here from ChEMBL document CHEMBL5042510, “Structure-Guided Discovery of Aminoquinazolines as Brain-Penetrant and Selective LRRK2 Inhibitors” (J Med Chem, 2022).

Data set [1] in a line: Unbound brain-to-plasma concentration ratio in rat at 2.5 uM incubated for 4 hrs by equilibrium dialysis method. To be noted: brain and plasma (unbound), read-out: K(p,uu,brain). Format: ADME, cell-free. On the technique in general: Equilibrium dialysis compares concentrations on both sides of a semipermeable membrane.
Data set [2] is described as follows: Unbound brain-to-plasma concentration ratio in non-human primates by positron emission tomography. It is filed as ADME. To be noted: brain and plasma (unbound), read-out: K(p,uu,brain).
Another data set concerns human MDR1 (P-gp). The data set is described as follows: Efflux ratio of apparent permeability across basolateral to apical side over apical to basolateral side in human MDR1-transfected dog MDCKII-MDR1 cells at 0.1 to 1 uM measured after 3 hrs by LC/MS/MS analysis. To be noted: MDCK-MDR1, dose 0.1-1 µM. It is filed as ADME, cell-based, Canis lupus familiaris.

Molecules are shown by their SMILES.

One may read the efflux ratio as a quotient of directional permeabilities that is used to spot active efflux. For `COc1cc2ncnc(Nc3cccc(Cl)c3F)c2cc1OC(=O)N1CCN(C)C[C@H]1C` [AZD-3759], the Kp uu at 4 h, 2.5 µM in data set [1] stood at 1.3. Besides, the Kp uu in data set [2] was determined as 0.52. In addition, the efflux ratio at 3 h, up to 1 µM with human MDR1 (P-gp) amounted to 0.41.
